Results published in patent US20250248999A1, “BAVDEGALUTAMIDE AND COMBINATIONS THEREOF FOR USE IN TREATING PROSTATE CANCER” (Arvinas Operations, Inc., priority 2022, published 2025).
Like-named read-outs stand apart in the source and are kept apart here.

Experiments:
clinical = conditions: human, in vivo
[1] = system: human VCaP (Vertebral-Cancer of the Prostate) tumor xenografts; test: 3-stage efficacy study in castrated mice bearing VCaP tumor xenografts; conditions: for change in body weight: Stage I treatment period, FIG. 16; for Tumor volume, Day 0 / Tumor volume, Day 43 (Stage I) / Tumor volume, Day 92 (Stage III): mean ± SEM; for Tumor volume, Day 92 (Stage III): abiraterone 100 mg/kg or Compound (I-g) 10 mg/kg once daily for 19 days
[2] = system: patient-derived xenograft (PDX) model TM00298; conditions: enzalutamide treatment; cited from earlier work
[3] = Phase I dose escalation safety
Text: A traditional 3+3 dose escalation design was implemented. […] Dose increases were dependent upon toxicities.

[4] = system: patient-derived xenograft (PDX) model TM00298; test: Patient-derived xenograft (PDX) model TM00298; type: in vivo, NSG (NOD scid IL2Ry) mice; conditions: Compound (I-g) 10 mg/kg/day PO, enzalutamide 20 mg/kg/day PO
Procedure: The TM00298 PDX was grown in intact (non-castrate) male NSG (NOD scid IL2Ry) mice.

mCRPC tumor = test: RECIST response by CT scan in mCRPC patient; type: in vivo, human; conditions: Patient 20, 140 mg/day, after 4 cycles
[5] = not given; remark: listed apart in the source
CYP3A4 = test: In vitro CYP3A4 induction; conditions: in vitro data
[6] = 28-day toxicology study in rats
[7] = Stage I, Compound (I-g) 3 mg/kg, abiraterone 100 mg/kg or combination, oral gavage once daily
[8] = Stage III, abiraterone-resistant tumors
[9] = Stage III, abiraterone-resistant tumors, abiraterone 100 mg/kg or Compound (I-g) 10 mg/kg once daily, n = 4

Structure (SMILES): C[C@]12CC[C@H](O)CC1=CC[C@@H]1[C@@H]2CC[C@]2(C)C(c3cccnc3)=CC[C@@H]12 [Abiraterone, (3S,8R,9S,10R,13S,14S)-10,13-dimethyl-17-(pyridin-3-yl)-2,3,4,7,8,9,10,11,12,13,14,15-dodecahydro-1H-cyclopenta[a]phenanthren-3-ol, reference compound]
- reduction in the average abiraterone AUC exposure (1000 mg abiraterone given with 420 mg Compound (I-g), preliminary): 22%
- drug-drug interaction (DDI) (abiraterone with Compound (I-g) vs abiraterone alone): no significant DDI was observed
- AUC (clinical; Abiraterone AUC0-tau, mean): 417 ng·h/mL
- Cmax (clinical; Abiraterone Cmax, mean): 117 ng/mL
- change in body weight [1]: no significant change in body weight was observed
- TGI (%) vs vehicle (Stage I) ([1]; Stage I, Compound (I-g) 3 mg/kg, abiraterone 100 mg/kg or combination, oral gavage once daily, 43 days): 60%
- Tumor volume, Day 0 [1, 7]: 135 ± 10 mm^3
- Tumor volume, Day 43 (Stage I) [1, 7]: 262 ± 39 mm^3
- Tumor volume, Day 92 (Stage III) [1, 8]: 467 ± 85 mm^3
- Tumor volume, Day 0 [1, 9]: 365 ± 44 mm^3

Structure (SMILES): CNC(=O)c1ccc(N2C(=S)N(c3ccc(C#N)c(C(F)(F)F)c3)C(=O)C2(C)C)cc1F [enzalutamide, reference compound]
- PSA reductions, published report (Jin 2017) [2]: modest PSA reductions were observed
- TGI, published report (Jin 2017) [2]: no TGI

Structure (SMILES): N#Cc1ccc(O[C@H]2CC[C@H](NC(=O)c3ccc(N4CCC(CN5CCN(c6cc7c(cc6F)C(=O)N(C6CCC(=O)NC6=O)C7=O)CC5)CC4)nn3)CC2)cc1Cl (some centres unmarked) [Compound (I-g)]
- adverse events at grades 2, 3, or 4 ([3]; 35 mg/day cohort (n=3)): no adverse events at grades 2, 3, or 4 were observed
- dose limiting toxicity ([3]; 35 mg/day cohort (n=3)): no dose limiting toxicity was observed
- dose limiting toxicity ([3]; 70 mg/day cohort (n=4)): no dose limiting toxicity was observed
- grade 2 adverse events ([3]; 70 mg/day cohort (n=4)): One patient experienced grade 2 adverse events (diarrhea, fatigue, vomiting)
- grade 3 adverse events ([3]; 70 mg/day cohort (n=4)): One patient experienced a grade 3 adverse event (anemia) that was unrelated to the administration of compound (I-g)
- dose limiting toxicity ([3]; 140 mg/day cohort (n=8)): no dose limiting toxicity was observed
- patients with grade 2 adverse events ([3]; 140 mg/day cohort (n=8)): 50 % of the patients
- dose-limiting toxicity ([3]; 280 mg/day cohort (n=7)): one patient experienced dose-limiting toxicity and renal failure
- patients with grade 2 or less adverse events ([3]; 280 mg/day cohort (n=7)): 5 patients
- reduction of plasma PSA ([4]; vs vehicle): 93%
- TGI ([4]; after 20 days, intact male NSG mice): 100%
- tumor response on CT scan (mCRPC tumor): RECIST response
- gastrointestinal alterations ([5]; dogs, 3, 10, 30 mg/kg oral once daily, 28 days): Gastrointestinal alterations were observed at all dose levels (including vehicle alone)
- prostate weights ([5]; male dogs): decreased prostate weights
- AUC (clinical): 9120 ng·h/mL
- AUC(0-t) (clinical): 3030 ng·h/mL
- Cmax (clinical): 451 ng/mL
- Tmax (clinical): 6 h
- CYP3A4 induction (CYP3A4): induces CYP3A4
- body weight and food consumption ([6]; 80 mg/kg female rat cohort): lost body weight and consumed less food
- reversibility of findings (liver hypertrophy, femur physis thickening) ([6]; male high-dose rats, 14-day recovery): fully reversible
- prostate weights ([6]; male rats): decreased prostate weights
- tolerability ([6]; rats, oral once daily 28 days, males 20, 60, 120 mg/kg, females 20, 40, 120 mg/kg): well tolerated at all doses, with the exception of the 80 mg/kg female cohort
- change in body weight [1]: no significant change in body weight was observed
- Tumor volume, Day 0 [1, 7]: 147 ± 8{grave over ( )} mm^3
- Tumor volume, Day 43 (Stage I) [1, 7]: 231 ± 26 mm^3
- TGI (%) vs Abiraterone (Stage III) ([1]; Stage III, abiraterone-resistant tumors, Compound (I-g) 10 mg/kg once daily for 19 days): growth inhibition was observed
- Tumor volume, Day 92 (Stage III) [1, 8]: 305 ± 23 mm^3
- Tumor volume, Day 0 [1, 9]: 330 ± 15 mm^3
